Reference: publication PMC7933930, “Development of a small molecule that corrects misfolding and increases secretion of Z α1‐antitrypsin” (EMBO Molecular Medicine, 2021)

Legend:
[1] = molecular target: T1, Serotonin 5HT3 (Homo sapiens, UniProt P46098); assay: Off‐target panel: Serotonin 5HT3 (DRX); type: cell-based
T1 sequence (P46098 24-478): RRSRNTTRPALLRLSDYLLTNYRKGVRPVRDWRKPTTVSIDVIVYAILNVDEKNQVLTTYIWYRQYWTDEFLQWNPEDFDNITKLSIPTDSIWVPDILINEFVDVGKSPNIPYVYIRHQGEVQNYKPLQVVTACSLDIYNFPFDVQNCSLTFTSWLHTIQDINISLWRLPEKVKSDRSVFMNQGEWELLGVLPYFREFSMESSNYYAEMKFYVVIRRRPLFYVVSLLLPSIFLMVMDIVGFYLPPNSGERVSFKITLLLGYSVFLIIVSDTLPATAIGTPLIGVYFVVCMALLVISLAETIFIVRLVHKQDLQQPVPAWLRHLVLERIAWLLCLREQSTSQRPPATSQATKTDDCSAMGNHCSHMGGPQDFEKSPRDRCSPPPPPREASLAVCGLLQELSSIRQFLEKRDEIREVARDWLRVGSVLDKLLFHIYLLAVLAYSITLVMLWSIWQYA
Experimental: (§1) GSK716 selectivity and PK properties were profiled in order to investigate the suitability of GSK716 for progression into in vivo studies and the potential for taking it forward as a clinical candidate for testing in humans. Since GSK716 results in loss of inhibitory activity of α1‐antitrypsin, the effect of the compound was assessed on other closely related serpins. […] Furthermore, there were no off‐target effects in a panel of assays considered predictive of known safety liabilities that precluded further development of GSK716 (Table EV1).

[2] = test system: Cell Health; assay: Off‐target panel: Cell Health; type: cell-based
Experimental: as §1

[3] = molecular target: T2, M α1‐antitrypsin (Homo sapiens, UniProt P01009); assay: Stoichiometry of inhibition against chymotrypsin, M α1‐antitrypsin; type: biochemical; conditions: M α1‐antitrypsin pre‐incubated with GSK716 (50µM), read-out: loss of protease inhibitory activity
T2 construct: purified from the plasma of M (wild‐type) and Z α1‐antitrypsin homozygotes; from tissue; host or cells: human plasma of M (wild-type) homozygotes
T2 sequence (P01009 25-418): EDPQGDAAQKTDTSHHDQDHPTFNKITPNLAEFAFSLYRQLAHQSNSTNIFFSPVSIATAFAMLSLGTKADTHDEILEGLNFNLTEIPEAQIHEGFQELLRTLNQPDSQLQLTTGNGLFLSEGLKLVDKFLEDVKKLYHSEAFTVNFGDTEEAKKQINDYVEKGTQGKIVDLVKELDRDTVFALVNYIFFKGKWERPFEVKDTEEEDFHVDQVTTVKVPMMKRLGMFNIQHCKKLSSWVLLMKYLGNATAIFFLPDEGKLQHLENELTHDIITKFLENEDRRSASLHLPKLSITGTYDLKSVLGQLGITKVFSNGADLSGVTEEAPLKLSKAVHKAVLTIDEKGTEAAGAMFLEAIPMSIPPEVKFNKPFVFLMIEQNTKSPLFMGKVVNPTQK
Experimental: Mutations that interfere with the opening of β‐sheet A or that perturb its interaction with the N‐terminal portion of the reactive centre loop alter the ability of serpins to inhibit target proteases (Hood et al, 1994; Irving et al, 2014). The stoichiometry of inhibition (SI) was determined for M α1‐antitrypsin and Z α1‐antitrypsin in discontinuous experiments against a model target protease, chymotrypsin. The pre‐incubation of both variants with GSK716 led to a > 98% loss of protease inhibitory activity (Fig 5A).
Figure 5 The effect of GSK716 on serpin inhibitory activity • α1‐Antitrypsin was incubated at varying molar ratios with the model protease bovine α‐chymotrypsin, and the residual protease activity determined. […] The position of covalent α1‐antitrypsin‐chymotrypsin complex (cpx), native (nat) and cleaved (clv) is shown. • The inhibitory activity of α1‐antichymotrypsin against chymotrypsin (ach + chym), neuroserpin against trypsin (neus + tryp), and antithrombin against thrombin (atiii + thrombin) was determined in the presence and absence of GSK716. […]
The native state stability of α1‐antitrypsin on addition of compounds was investigated by thermal denaturation in the presence of a 5X concentration of SYPRO Orange dye solution (Life Technologies) (Nettleship et al, 2008). Resistance to heat‐induced polymerisation was determined using an end‐point constant‐temperature assay. […]

[4] = test system: Z α1‐antitrypsin polymers; assay: Liver polymer load in Z α1‐antitrypsin transgenic mice (2C1 immunohistochemistry); type: in vivo, mouse; conditions: 100 mg/kg three times a day for 20 days, versus vehicle
Experimental: Since GSK716 blocks polymer formation in cells, we explored the effect of dosing GSK716 on liver polymer levels. […] GSK716 was dosed at 100 mg/kg three times a day for 20 days. […] Liver polymer levels were investigated by staining with 2C1 anti‐polymer monoclonal antibody and were scored blind by a pathologist or by quantification using an algorithm to measure all areas of positive staining (Fig EV1). There was no difference observed in total liver polymer load when assessed by manual or quantitative scoring (Fig 6B and C). There was no significant fibrosis in any of the liver sections. Intrahepatic α1‐antitrypsin was also assessed by ELISA. […] Treatment with GSK716 increased the monomer measured in liver homogenate by approx. fourfold in keeping with the changes seen in blood.
Formalin‐fixed, paraffin‐embedded livers from all mice were sectioned and stained with haematoxylin and eosin (H&E) and periodic acid Schiff (PAS) with diastase to examine tissue quality and the presence of diastase‐resistant polymer inclusions, respectively. […] Representative sections of liver from each mouse were blindly evaluated by a Board‐Certified Veterinary Pathologist and ranked in order of polymer content. A semi‐automated image analysis solution was developed to quantify total polymer content (Fig EV1). […]

[5] = molecular target: OPRK1 (Homo sapiens, UniProt P41145); assay: Off‐target panel: OPRK1 (DRX); type: cell-based
Sequence of OPRK1 (P41145 whole entry, species assumed): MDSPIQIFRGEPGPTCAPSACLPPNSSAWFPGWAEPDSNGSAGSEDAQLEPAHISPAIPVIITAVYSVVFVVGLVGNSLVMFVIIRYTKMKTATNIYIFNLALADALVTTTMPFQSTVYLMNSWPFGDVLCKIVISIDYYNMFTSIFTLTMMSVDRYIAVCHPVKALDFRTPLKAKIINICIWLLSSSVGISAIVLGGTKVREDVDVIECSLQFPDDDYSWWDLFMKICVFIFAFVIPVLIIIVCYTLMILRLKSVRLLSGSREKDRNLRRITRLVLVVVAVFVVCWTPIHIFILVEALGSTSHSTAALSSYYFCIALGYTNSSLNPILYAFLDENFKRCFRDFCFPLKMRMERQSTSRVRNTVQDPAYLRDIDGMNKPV
Experimental: as §1

[6] = molecular target: Adrenergic α1B (Homo sapiens, UniProt P35368); assay: Off‐target panel: Adrenergic α1B (DRX); type: cell-based
Sequence of Adrenergic α1B (P35368 whole entry): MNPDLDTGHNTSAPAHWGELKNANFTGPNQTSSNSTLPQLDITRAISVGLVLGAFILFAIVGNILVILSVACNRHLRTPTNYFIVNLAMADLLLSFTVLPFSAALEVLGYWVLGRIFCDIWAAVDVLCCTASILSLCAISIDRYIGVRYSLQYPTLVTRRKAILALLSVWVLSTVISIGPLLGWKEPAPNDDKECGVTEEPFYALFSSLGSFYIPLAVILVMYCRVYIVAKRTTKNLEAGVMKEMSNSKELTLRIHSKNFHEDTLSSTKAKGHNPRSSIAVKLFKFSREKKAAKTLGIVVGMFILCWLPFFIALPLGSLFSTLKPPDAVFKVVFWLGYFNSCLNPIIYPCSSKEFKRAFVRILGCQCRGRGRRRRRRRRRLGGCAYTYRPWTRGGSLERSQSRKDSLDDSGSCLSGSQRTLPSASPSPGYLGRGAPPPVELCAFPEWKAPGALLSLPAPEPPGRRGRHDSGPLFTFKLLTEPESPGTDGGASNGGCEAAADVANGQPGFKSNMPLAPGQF
Experimental: as §1

Structure (SMILES): CCC[C@@H](NC(=O)c1cccc2c1CC(=O)N2)[C@@H](O)c1cccc(F)c1C [GSK716]
- EC50 [1]: > 50.1 µM
- IC50 [1]: 31.6 µM
- Mean (PXC50) ([2]; Membrane Permeability): <3.7
- Mean (PXC50) ([2]; Mitochondrial Potential): 3.8
- Mean (PXC50) ([2]; Nucleus (size)): <3.7
- inhibition at 50 µM [3]: > 98%
- total liver polymer load (manual or quantitative scoring of 2C1 staining) [4]: no difference
- EC50 [5]: 20 µM
- IC50 [6]: > 25.1 µM
